Experimental data as given in patent publication US20110269815A1, “METHODS OF REDUCING CELLULAR PROLIFERATION BY INHIBITING ACSVL3” (THE JOHNS HOPKINS UNIVERSITY, priority 2008, published 2011).

Experiments:
ACSL1 = target: T1, ACSL1 (Rattus norvegicus, UniProt P18163); conditions: cited from earlier work
T1 sequence (P18163 1-699): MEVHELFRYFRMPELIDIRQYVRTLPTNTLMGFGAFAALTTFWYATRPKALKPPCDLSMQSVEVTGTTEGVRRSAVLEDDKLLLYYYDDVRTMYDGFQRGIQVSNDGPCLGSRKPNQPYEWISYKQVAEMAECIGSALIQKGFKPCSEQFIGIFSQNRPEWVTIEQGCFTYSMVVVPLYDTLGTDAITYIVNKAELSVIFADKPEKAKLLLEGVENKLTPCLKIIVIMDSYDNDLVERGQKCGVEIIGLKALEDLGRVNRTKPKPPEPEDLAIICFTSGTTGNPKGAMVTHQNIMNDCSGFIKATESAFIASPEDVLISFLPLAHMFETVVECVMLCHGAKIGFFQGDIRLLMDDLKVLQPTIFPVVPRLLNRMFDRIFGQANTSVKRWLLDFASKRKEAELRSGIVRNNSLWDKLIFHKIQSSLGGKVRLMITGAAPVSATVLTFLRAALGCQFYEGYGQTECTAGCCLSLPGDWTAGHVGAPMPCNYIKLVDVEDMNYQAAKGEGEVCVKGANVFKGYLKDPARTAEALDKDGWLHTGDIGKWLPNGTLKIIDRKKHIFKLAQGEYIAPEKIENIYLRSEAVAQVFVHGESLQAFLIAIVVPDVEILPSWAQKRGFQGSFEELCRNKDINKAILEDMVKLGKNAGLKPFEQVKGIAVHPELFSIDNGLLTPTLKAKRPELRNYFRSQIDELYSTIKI

ACSL3 = ACSL3 (Rattus norvegicus, UniProt Q63151); conditions: cited from earlier work
ACSL4 = ACSL4 (Rattus norvegicus, UniProt O35547); conditions: cited from earlier work
ACSVL1 (FATP2) = ACSVL1 (FATP2) (Homo sapiens, UniProt O14975); conditions: cited from earlier work
ACSL5 = target: T2, ACSL5 (Rattus norvegicus, UniProt O88813); conditions: cited from earlier work
T2 sequence (O88813 1-683): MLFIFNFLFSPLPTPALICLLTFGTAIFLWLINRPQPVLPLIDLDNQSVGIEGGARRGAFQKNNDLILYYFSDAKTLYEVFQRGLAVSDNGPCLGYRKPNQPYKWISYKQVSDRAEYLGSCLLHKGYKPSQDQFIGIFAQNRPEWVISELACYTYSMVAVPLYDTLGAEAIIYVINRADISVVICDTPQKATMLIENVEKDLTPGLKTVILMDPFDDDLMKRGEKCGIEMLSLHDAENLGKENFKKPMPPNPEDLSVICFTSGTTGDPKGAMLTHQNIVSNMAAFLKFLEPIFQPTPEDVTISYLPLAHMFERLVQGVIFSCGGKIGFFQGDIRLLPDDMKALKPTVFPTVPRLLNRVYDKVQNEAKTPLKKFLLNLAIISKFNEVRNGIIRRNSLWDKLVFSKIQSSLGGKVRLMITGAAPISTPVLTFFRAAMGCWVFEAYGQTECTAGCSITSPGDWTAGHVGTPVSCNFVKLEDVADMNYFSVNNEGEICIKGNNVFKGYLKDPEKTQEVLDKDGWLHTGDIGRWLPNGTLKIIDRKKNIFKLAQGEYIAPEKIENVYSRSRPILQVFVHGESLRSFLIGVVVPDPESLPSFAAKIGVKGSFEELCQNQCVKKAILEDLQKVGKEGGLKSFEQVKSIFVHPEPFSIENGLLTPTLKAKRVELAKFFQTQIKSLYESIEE

ACSL6 = target: T3, ACSL6 (Rattus norvegicus, UniProt P33124); conditions: cited from earlier work
T3 sequence (P33124 1-697): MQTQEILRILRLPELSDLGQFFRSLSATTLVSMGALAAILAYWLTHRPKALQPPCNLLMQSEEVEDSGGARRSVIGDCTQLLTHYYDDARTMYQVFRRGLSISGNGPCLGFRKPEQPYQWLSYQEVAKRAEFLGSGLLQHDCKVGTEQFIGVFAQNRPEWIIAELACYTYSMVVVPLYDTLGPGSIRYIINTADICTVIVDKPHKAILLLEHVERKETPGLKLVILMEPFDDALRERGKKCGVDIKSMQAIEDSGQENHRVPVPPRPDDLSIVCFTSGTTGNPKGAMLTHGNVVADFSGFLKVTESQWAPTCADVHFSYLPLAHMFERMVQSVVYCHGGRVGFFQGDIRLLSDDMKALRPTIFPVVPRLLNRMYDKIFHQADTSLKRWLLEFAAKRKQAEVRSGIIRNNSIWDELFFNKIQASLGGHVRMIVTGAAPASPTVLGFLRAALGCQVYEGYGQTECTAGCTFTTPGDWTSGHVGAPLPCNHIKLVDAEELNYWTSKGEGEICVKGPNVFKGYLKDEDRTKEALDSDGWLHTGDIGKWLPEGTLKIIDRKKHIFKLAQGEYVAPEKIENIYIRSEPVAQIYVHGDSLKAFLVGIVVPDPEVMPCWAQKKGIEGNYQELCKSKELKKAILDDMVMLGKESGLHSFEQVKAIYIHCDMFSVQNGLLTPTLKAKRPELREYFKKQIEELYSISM

ACSVL5 (FATP4) = ACSVL5 (FATP4) (Mus musculus, UniProt Q91VE0); conditions: cited from earlier work
ACSBG2 = target: T4, ACSBG2 (Homo sapiens, UniProt Q5FVE4); conditions: cited from earlier work
T4 sequence (Q5FVE4 1-666): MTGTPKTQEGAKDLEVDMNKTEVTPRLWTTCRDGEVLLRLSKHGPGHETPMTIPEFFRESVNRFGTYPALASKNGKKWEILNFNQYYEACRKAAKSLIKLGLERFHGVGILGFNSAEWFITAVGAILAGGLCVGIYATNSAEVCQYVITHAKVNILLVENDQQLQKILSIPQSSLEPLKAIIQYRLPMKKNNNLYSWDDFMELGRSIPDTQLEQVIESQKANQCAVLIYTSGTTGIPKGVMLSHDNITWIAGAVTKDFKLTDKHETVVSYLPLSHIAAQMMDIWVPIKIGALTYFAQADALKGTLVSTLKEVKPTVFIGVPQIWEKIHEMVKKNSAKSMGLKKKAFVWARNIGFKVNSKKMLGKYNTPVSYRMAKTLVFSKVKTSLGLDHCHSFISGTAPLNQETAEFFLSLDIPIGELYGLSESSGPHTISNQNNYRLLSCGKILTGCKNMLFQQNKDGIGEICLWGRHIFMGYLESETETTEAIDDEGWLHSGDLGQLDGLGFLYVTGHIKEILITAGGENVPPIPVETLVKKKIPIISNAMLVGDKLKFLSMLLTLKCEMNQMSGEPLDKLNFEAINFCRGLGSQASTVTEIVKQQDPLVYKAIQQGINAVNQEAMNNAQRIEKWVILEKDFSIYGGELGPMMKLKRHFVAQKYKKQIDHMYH

[1] = test system: lung (NCI-H23) cancer cell line; conditions: cited from earlier work
[2] = test system: colon (HCT-15) cancer cell line; conditions: cited from earlier work
[3] = test system: brain (SF268) cancer cell line; conditions: cited from earlier work
cardiolipin = conditions: cited from earlier work
ACSVL3 mRNA = assay: Transient ACSVL3 KD in U87 cells, ACSVL3 expression by immunofluorescence and Western blot; assay type: cell-based, human; conditions: day 3 post-transfection, indirect immunofluorescence and Western blot
Procedure: Transient ACSVL3 KD. Four different small interfering RNA (siRNA) constructs targeting different regions of ACSVL3 mRNA were produced using the pSilencer™ kit (Applied Biosystems/Ambion; Austin Tex.). U87 cells were transfected with each construct using siPORT™ Lipid reagent (Applied Biosystems/Ambion). ACSVL3 expression was assessed on day 3 post-transfection by indirect immunofluorescence and Western blot and found to be decreased by siRNA ACSVL3-3 and -4, but not -1 or -2 (data not shown). siRNA ACSVL3-3 (5′-CACGGCTCGCGGCGCTTTA-3′ (SEQ ID NO: 1)) targets by 394-412 of ACSVL3 mRNA and ACSVL3-4 (5′-CGTCTATGGAGTCACTGTG-3′ (SEQ ID NO: 2)) targets by 1861-1879. Transient ACSVL3 KD in Mayo-22 cells was achieved by transfection with ACSVL3-3 using siPORT™ Lipid reagent. Control cells received siRNA with a scrambled nucleotide sequence (supplied by Ambion).
Immunohistochemistry, immunofluorescence, and Western blotting. […] ACSVL3 was detected on Western blots with SuperSignal West Pico chemiluminescent substrate (Pierce Biotechnology, Rockford Ill.). Total and phospho-Akt (ser473) were detected with antibodies from BD Biosciences (San Jose Calif.) and Cell Signaling Technology (Danvers Mass.), respectively, and quantitated with the LiCOR Odyssey dual wavelength infrared system. Protein was determined by the method of Lowry et al. (16).

Chain of ACSL4 (O35547 whole entry): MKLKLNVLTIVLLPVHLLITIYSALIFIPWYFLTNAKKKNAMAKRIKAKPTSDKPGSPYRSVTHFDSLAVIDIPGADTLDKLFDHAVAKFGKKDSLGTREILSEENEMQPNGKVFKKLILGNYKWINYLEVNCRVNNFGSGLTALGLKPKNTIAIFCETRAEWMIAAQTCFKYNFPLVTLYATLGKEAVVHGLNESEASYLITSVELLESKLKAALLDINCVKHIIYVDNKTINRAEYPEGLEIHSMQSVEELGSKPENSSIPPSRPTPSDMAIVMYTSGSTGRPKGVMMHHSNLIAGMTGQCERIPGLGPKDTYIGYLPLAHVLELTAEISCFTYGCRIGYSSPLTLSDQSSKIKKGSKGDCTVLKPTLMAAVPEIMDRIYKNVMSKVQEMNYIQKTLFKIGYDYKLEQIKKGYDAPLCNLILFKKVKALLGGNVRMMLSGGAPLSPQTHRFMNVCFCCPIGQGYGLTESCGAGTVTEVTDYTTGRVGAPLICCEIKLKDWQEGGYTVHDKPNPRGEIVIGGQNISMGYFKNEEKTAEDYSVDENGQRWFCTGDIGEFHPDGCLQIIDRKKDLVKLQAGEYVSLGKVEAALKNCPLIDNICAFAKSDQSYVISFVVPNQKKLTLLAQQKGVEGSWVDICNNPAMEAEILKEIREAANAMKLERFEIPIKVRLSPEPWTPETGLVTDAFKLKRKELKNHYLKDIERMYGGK
Chain of ACSVL1 (FATP2) (O14975 whole entry): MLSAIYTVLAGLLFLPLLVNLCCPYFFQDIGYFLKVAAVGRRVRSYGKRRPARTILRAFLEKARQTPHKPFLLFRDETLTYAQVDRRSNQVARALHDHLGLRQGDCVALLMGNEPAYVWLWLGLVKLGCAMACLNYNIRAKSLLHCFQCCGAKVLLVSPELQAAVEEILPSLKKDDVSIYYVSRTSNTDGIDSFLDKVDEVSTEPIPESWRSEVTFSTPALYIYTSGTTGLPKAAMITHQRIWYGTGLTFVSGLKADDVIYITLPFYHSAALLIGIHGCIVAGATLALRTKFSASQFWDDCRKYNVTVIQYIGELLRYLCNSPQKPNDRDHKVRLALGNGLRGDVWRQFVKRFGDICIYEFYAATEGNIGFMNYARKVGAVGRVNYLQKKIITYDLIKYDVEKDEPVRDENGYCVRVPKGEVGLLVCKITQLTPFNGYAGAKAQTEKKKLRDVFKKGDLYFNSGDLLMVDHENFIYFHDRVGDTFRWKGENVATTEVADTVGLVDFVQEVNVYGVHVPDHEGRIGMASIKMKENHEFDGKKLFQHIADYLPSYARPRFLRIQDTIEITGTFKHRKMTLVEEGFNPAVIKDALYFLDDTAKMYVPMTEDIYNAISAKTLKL
Chain of ACSVL5 (FATP4) (Q91VE0 whole entry): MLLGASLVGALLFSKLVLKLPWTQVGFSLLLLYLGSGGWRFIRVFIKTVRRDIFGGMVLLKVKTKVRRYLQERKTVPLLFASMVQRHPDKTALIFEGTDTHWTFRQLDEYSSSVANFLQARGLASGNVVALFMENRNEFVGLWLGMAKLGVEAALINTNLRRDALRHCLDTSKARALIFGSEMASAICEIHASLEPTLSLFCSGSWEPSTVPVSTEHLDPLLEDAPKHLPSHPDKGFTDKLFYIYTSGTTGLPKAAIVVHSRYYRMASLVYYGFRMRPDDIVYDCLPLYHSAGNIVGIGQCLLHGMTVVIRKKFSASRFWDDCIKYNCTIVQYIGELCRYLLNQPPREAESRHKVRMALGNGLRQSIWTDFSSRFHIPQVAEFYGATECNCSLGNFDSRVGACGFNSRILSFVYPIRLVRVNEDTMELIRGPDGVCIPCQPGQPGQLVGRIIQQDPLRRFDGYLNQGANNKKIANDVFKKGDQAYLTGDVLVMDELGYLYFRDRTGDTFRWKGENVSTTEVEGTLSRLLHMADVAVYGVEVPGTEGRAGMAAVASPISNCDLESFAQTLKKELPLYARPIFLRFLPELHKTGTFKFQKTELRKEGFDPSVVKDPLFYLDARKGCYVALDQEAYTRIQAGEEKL
Chain of ACSL3 (Q63151 whole entry): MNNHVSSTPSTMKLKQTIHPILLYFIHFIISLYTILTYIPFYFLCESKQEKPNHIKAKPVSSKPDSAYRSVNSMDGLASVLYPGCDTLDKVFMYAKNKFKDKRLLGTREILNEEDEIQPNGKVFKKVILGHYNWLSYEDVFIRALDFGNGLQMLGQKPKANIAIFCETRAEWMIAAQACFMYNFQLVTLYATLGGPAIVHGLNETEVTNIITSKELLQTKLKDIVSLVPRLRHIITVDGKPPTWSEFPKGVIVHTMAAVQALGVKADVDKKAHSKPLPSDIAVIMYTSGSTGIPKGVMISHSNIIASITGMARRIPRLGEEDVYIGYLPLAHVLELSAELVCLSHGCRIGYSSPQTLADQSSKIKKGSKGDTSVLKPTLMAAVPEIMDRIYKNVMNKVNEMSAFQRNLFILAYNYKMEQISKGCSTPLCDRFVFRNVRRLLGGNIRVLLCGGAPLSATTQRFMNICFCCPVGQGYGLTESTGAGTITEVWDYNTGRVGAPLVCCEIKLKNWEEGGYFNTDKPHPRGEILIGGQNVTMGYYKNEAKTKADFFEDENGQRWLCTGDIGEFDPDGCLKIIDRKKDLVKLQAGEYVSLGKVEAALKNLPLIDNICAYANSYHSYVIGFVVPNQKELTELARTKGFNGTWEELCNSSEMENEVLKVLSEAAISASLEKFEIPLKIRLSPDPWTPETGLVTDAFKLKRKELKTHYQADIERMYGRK

Row | Compound | inhibition of ACSL1 (ACSL1) | inhibition of ACSL3 (ACSL3) | inhibition of ACSL4 (ACSL4) | inhibition of ACSVL1 (FATP2) (ACSVL1 (FATP2)) | inhibition of ACSL5 (ACSL5) | inhibition of ACSL6 (ACSL6) | inhibition of ACSVL5 (FATP4) (ACSVL5 (FATP4)) | inhibition of ACSBG2 (ACSBG2) | caspase activity [1] | caspase activity [2] | caspase activity [3] | mitochondrial level of cardiolipin (cardiolipin) | ACSVL3 expression (ACSVL3 mRNA)
1 | CCC/C=C/C/C=C/C=C/C=N/NN=O [triacsin c] | inhibits | inhibits | inhibits | inhibits | does not inhibit | does not inhibit | does not inhibit | does not inhibit | induced caspase activity | induced caspase activity | induced caspase activity | decreased | 
2 | siRNA ACSVL3-4: siRNA 5′-CGTCTATGGAGTCACTGTG-3′ (SEQ ID NO: 2), targets 1861-1879 of ACSVL3 mRNA (listed as DNA, chemistry not given here) |  |  |  |  |  |  |  |  |  |  |  |  | decreased
